Legend:
[1] = molecular target: Homeodomain-interacting protein kinase 2 (Homo sapiens) (UniProt Q9H2X6); experiment: HIPK2 ProQinase selectivity panel; conditions: Compound concentration 1.0 uM
[2] = molecular target: Protein kinase C eta type (Homo sapiens) (UniProt P24723); experiment: PKC-eta ProQinase selectivity panel; conditions: Compound concentration 1.0 uM
[3] = system: Hepatocyte growth factor receptor (Homo sapiens), P08581 [F1200I]; experiment: MET F1200I ProQinase selectivity panel; conditions: Compound concentration 1.0 uM
[4] = system: Platelet-derived growth factor receptor alpha (Homo sapiens), P16234 [T674I]; experiment: PDGFR-alpha T674I ProQinase selectivity panel; conditions: Compound concentration 1.0 uM
[5] = molecular target: Alpha-1D adrenergic receptor (Homo sapiens) (UniProt P25100); conditions: Compound concentration 10.0 uM
[6] = system: Platelet-derived growth factor receptor alpha (Homo sapiens), P16234 [V561D]; experiment: PDGFR-alpha V561D ProQinase selectivity panel; conditions: Compound concentration 1.0 uM
[7] = molecular target: Muscarinic acetylcholine receptor M4 (Homo sapiens) (UniProt P08173); conditions: Compound concentration 10.0 uM
Muscarinic acetylcholine receptor M4 (Homo sapiens), sequence (P08173 whole entry): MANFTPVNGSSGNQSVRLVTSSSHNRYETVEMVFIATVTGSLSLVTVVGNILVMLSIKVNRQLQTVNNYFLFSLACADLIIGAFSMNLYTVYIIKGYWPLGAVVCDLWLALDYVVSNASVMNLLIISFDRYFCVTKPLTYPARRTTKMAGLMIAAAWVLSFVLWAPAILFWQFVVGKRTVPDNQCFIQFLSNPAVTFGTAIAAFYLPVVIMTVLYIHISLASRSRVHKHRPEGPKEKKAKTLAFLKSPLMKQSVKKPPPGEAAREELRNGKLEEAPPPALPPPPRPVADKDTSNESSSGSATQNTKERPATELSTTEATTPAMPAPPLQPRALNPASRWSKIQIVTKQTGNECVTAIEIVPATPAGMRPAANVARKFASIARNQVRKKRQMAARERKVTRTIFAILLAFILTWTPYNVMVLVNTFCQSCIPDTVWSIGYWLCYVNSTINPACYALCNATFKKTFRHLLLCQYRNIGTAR

[8] = molecular target: Death-associated protein kinase 2 (Homo sapiens) (UniProt Q9UIK4); experiment: DAPK2 ProQinase selectivity panel; conditions: Compound concentration 1.0 uM
[9] = system: Tyrosine-protein kinase ABL1 (Homo sapiens), P00519 [F317I]; experiment: ABL1 F317I ProQinase selectivity panel; conditions: Compound concentration 1.0 uM
[10] = molecular target: Tyrosine-protein kinase JAK2 (Homo sapiens) (UniProt O60674); experiment: JAK2 ProQinase selectivity panel; conditions: Compound concentration 1.0 uM
[11] = molecular target: Tyrosine-protein kinase Blk (Homo sapiens) (UniProt P51451); experiment: BLK ProQinase selectivity panel; conditions: Compound concentration 1.0 uM
Tyrosine-protein kinase Blk (Homo sapiens), sequence (P51451 2-505 limits assumed): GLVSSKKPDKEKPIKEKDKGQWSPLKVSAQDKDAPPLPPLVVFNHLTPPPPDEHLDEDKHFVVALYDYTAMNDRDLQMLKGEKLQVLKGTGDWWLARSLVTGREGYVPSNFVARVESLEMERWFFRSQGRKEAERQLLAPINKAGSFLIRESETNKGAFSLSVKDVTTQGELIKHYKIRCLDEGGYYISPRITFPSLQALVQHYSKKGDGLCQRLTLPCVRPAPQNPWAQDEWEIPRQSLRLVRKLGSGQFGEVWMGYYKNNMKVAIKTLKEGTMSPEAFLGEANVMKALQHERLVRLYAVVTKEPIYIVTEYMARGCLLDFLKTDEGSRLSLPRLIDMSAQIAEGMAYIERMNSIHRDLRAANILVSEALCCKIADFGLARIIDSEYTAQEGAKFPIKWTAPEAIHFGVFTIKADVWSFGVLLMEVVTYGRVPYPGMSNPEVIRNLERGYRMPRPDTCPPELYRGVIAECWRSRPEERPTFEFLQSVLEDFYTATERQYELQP

[12] = molecular target: Casein kinase I isoform epsilon (Homo sapiens) (UniProt P49674); experiment: CK1-epsilon ProQinase selectivity panel; conditions: Compound concentration 1.0 uM
Casein kinase I isoform epsilon (Homo sapiens), sequence (P49674 whole entry, looked up, canonical isoform): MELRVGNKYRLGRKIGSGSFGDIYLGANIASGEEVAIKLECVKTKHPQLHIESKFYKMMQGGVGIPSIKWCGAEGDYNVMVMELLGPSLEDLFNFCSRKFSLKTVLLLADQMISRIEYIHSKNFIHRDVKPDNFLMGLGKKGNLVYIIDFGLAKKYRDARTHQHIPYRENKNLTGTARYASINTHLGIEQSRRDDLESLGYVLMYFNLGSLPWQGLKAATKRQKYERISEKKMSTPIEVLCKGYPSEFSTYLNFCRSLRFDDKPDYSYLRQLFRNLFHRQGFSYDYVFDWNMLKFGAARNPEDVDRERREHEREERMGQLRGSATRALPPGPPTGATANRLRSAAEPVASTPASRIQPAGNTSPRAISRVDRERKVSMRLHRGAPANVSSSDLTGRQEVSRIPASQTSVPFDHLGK

[13] = molecular target: Ribosomal protein S6 kinase alpha-3 (Homo sapiens) (UniProt P51812); experiment: RPS6KA3 ProQinase selectivity panel; conditions: Compound concentration 1.0 uM
[14] = molecular target: Ribosomal protein S6 kinase alpha-5 (Homo sapiens) (UniProt O75582); experiment: RPS6KA5 ProQinase selectivity panel; conditions: Compound concentration 1.0 uM
[15] = system: Epidermal growth factor receptor (Homo sapiens), P00533 [UNDEFINED MUTATION]; experiment: EGF-R d746-750 ProQinase selectivity panel; conditions: Compound concentration 1.0 uM
[16] = molecular target: Serine/threonine-protein kinase MARK1 (Homo sapiens) (UniProt Q9P0L2); experiment: MARK1 ProQinase selectivity panel; conditions: Compound concentration 1.0 uM
[17] = molecular target: Macrophage-stimulating protein receptor (Homo sapiens) (UniProt Q04912); experiment: RON ProQinase selectivity panel; conditions: Compound concentration 1.0 uM
Macrophage-stimulating protein receptor (Homo sapiens), sequence (Q04912 25-304 limits assumed): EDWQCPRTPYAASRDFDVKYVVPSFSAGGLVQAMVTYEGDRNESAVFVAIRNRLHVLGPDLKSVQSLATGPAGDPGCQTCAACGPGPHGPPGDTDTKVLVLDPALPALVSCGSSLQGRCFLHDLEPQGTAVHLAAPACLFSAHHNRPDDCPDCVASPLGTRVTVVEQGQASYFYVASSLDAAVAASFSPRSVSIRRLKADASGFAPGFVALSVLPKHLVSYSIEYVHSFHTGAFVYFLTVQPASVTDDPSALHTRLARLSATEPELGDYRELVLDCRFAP
Macrophage-stimulating protein receptor (Homo sapiens), sequence (Q04912 310-1400 limits assumed): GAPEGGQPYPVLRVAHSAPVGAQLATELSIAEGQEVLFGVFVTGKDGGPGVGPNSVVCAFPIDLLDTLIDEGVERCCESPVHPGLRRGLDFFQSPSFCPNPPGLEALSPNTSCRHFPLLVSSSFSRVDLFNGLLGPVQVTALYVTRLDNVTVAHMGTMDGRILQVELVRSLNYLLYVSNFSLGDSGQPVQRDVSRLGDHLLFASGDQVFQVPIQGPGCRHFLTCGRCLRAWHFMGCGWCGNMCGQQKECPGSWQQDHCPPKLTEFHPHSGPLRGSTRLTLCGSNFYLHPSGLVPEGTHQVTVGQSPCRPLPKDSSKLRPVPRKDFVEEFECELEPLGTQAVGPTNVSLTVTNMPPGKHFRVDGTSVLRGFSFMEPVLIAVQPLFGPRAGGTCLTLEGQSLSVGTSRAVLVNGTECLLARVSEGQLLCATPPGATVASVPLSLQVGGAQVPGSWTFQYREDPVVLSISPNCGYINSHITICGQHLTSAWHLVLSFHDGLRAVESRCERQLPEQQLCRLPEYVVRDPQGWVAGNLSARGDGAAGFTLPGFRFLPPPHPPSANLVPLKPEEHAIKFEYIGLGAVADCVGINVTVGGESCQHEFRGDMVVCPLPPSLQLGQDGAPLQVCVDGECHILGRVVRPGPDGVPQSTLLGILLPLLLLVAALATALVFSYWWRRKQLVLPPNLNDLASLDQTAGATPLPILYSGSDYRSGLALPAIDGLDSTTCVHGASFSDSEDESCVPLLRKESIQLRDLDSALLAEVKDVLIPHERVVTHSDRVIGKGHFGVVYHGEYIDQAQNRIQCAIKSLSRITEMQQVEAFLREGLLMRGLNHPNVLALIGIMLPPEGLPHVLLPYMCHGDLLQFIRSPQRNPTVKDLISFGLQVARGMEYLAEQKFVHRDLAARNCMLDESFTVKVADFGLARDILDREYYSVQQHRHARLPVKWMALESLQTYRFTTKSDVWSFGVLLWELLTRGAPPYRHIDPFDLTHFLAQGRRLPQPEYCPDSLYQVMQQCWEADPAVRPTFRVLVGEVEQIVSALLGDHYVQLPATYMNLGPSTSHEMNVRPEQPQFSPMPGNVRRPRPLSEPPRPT

[18] = molecular target: Serine/threonine-protein kinase PAK 3 (Homo sapiens) (UniProt O75914); experiment: PAK3 ProQinase selectivity panel; conditions: Compound concentration 1.0 uM
[19] = molecular target: Serine/threonine-protein kinase pim-2 (Homo sapiens) (UniProt Q9P1W9); experiment: PIM2 ProQinase selectivity panel; conditions: Compound concentration 1.0 uM
[20] = molecular target: Protein-tyrosine kinase 2-beta (Homo sapiens) (UniProt Q14289); experiment: PYK2 ProQinase selectivity panel; conditions: Compound concentration 1.0 uM
[21] = molecular target: Serine/threonine-protein kinase 17A (Homo sapiens) (UniProt Q9UEE5); experiment: STK17A ProQinase selectivity panel; conditions: Compound concentration 1.0 uM
[22] = molecular target: Beta-1 adrenergic receptor (Homo sapiens) (UniProt P08588); conditions: Compound concentration 10.0 uM
Beta-1 adrenergic receptor (Homo sapiens), sequence (P08588 whole entry, looked up): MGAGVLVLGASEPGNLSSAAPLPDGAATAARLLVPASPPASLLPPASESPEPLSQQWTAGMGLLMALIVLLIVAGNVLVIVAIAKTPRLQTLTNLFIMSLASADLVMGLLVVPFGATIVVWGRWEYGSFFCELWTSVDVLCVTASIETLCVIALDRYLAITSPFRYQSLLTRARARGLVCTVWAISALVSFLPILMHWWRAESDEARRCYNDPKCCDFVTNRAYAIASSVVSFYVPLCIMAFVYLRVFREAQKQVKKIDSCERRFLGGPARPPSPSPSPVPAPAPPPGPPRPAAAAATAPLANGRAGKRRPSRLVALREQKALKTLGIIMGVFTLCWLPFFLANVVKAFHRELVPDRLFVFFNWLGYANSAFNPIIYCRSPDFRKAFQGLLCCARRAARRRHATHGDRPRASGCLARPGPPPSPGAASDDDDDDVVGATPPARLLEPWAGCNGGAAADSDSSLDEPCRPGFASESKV

[23] = molecular target: Serine/threonine-protein kinase N2 (Homo sapiens) (UniProt Q16513); experiment: PRK2 ProQinase selectivity panel; conditions: Compound concentration 1.0 uM
[24] = molecular target: Rho-associated protein kinase 1 (Homo sapiens) (UniProt Q13464); experiment: ROCK1 ProQinase selectivity panel; conditions: Compound concentration 1.0 uM
[25] = molecular target: Serine/threonine-protein kinase DCLK2 (Homo sapiens) (UniProt Q8N568); experiment: DCAMKL2 ProQinase selectivity panel; conditions: Compound concentration 1.0 uM
[26] = molecular target: Calcium/calmodulin-dependent protein kinase kinase 2 (Homo sapiens) (UniProt Q96RR4); experiment: CAMKK2 ProQinase selectivity panel; conditions: Compound concentration 1.0 uM
[27] = molecular target: Serine/threonine-protein kinase SIK2 (Homo sapiens) (UniProt Q9H0K1); experiment: SNF1LK2 ProQinase selectivity panel; conditions: Compound concentration 1.0 uM
[28] = molecular target: Vascular endothelial growth factor receptor 1 (Homo sapiens) (UniProt P17948); experiment: VEGF-R1 ProQinase selectivity panel; conditions: Compound concentration 1.0 uM
[29] = molecular target: Mitogen-activated protein kinase 14 (Homo sapiens) (UniProt Q16539); experiment: p38-alpha ProQinase selectivity panel; conditions: Compound concentration 1.0 uM
[30] = molecular target: High affinity nerve growth factor receptor (Homo sapiens) (UniProt P04629); experiment: TRK-A ProQinase selectivity panel; conditions: Compound concentration 1.0 uM
[31] = molecular target: SRSF protein kinase 3 (Homo sapiens) (UniProt Q9UPE1); experiment: STK23 ProQinase selectivity panel; conditions: Compound concentration 1.0 uM
[32] = molecular target: Ephrin type-A receptor 4 (Homo sapiens) (UniProt P54764); experiment: EPHA4 ProQinase selectivity panel; conditions: Compound concentration 1.0 uM
[33] = molecular target: Tyrosine-protein kinase JAK1 (Homo sapiens) (UniProt P23458); experiment: JAK1 ProQinase selectivity panel; conditions: Compound concentration 1.0 uM
[34] = system: Hepatocyte growth factor receptor (Homo sapiens), P08581 [Y1230A]; experiment: MET Y1230A ProQinase selectivity panel; conditions: Compound concentration 1.0 uM
[35] = molecular target: MAP kinase-activated protein kinase 5 (Homo sapiens) (UniProt Q8IW41); experiment: MAPKAPK5 ProQinase selectivity panel; conditions: Compound concentration 1.0 uM
[36] = system: Epidermal growth factor receptor (Homo sapiens), P00533 [G719C]; experiment: EGF-R G719C ProQinase selectivity panel; conditions: Compound concentration 1.0 uM
[37] = molecular target: Tyrosine-protein kinase Fyn (Homo sapiens) (UniProt P06241); experiment: FYN ProQinase selectivity panel; conditions: Compound concentration 1.0 uM
[38] = molecular target: Eukaryotic translation initiation factor 2-alpha kinase 3 (Homo sapiens) (UniProt Q9NZJ5); experiment: EIF2AK3 ProQinase selectivity panel; conditions: Compound concentration 1.0 uM
[39] = molecular target: Ribosomal protein S6 kinase beta-2 (Homo sapiens) (UniProt Q9UBS0); experiment: S6K-beta ProQinase selectivity panel; conditions: Compound concentration 1.0 uM
[40] = molecular target: Inhibitor of nuclear factor kappa-B kinase subunit alpha (Homo sapiens) (UniProt O15111); experiment: IKK-alpha ProQinase selectivity panel; conditions: Compound concentration 1.0 uM
[41] = molecular target: Tyrosine-protein kinase receptor UFO (Homo sapiens) (UniProt P30530); experiment: AXL ProQinase selectivity panel; conditions: Compound concentration 1.0 uM
Tyrosine-protein kinase receptor UFO (Homo sapiens), sequence (P30530 whole entry): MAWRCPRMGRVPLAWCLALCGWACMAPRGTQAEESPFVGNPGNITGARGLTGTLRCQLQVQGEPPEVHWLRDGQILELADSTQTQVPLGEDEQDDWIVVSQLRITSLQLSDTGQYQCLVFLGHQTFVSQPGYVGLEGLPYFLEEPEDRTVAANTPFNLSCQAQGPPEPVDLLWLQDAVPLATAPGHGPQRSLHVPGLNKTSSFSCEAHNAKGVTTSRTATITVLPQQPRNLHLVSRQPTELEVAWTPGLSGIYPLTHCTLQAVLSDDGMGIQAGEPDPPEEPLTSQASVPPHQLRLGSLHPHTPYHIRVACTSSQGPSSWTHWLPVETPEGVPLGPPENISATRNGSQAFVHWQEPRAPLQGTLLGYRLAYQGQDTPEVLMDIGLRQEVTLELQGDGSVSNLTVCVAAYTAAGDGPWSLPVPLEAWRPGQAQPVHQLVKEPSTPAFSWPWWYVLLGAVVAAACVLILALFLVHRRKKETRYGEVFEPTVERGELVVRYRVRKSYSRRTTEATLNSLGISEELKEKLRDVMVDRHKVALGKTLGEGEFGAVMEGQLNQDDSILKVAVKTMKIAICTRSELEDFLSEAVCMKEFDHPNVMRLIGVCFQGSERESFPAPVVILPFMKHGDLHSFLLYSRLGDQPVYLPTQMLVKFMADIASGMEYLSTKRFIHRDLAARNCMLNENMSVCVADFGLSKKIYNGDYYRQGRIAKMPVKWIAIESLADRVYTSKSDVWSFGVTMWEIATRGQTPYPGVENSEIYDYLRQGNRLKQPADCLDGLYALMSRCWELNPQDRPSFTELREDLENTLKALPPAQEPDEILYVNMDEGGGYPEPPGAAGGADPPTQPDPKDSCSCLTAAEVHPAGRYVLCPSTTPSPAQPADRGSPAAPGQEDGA

[42] = molecular target: Myosin light chain kinase (Homo sapiens) (UniProt Q32MK0); experiment: MYLK3 ProQinase selectivity panel; conditions: Compound concentration 1.0 uM
[43] = molecular target: Serine/threonine-protein kinase 24 (Homo sapiens) (UniProt Q9Y6E0); experiment: MST3 ProQinase selectivity panel; conditions: Compound concentration 1.0 uM
[44] = molecular target: Serine/threonine-protein kinase pim-1 (Homo sapiens) (UniProt P11309); experiment: PIM1 ProQinase selectivity panel; conditions: Compound concentration 1.0 uM
[45] = system: Dual specificity mitogen-activated protein kinase kinase 6 (Homo sapiens), P52564 [S207D,T211D]; experiment: MKK6 S207D/T211D ProQinase selectivity panel; conditions: Compound concentration 1.0 uM
[46] = molecular target: Tyrosine-protein kinase FRK (Homo sapiens) (UniProt P42685); experiment: FRK ProQinase selectivity panel; conditions: Compound concentration 1.0 uM
[47] = system: Proto-oncogene tyrosine-protein kinase receptor Ret (Homo sapiens), P07949 [V804L]; experiment: RET V804L ProQinase selectivity panel; conditions: Compound concentration 1.0 uM
[48] = system: Mast/stem cell growth factor receptor Kit (Homo sapiens), P10721 [T670I]; experiment: KIT T670I ProQinase selectivity panel; conditions: Compound concentration 1.0 uM
[49] = molecular target: LIM domain kinase 2 (Homo sapiens) (UniProt P53671); experiment: LIMK2 ProQinase selectivity panel; conditions: Compound concentration 1.0 uM
LIM domain kinase 2 (Homo sapiens), sequence (P53671 whole entry, looked up, the tested form may be a part): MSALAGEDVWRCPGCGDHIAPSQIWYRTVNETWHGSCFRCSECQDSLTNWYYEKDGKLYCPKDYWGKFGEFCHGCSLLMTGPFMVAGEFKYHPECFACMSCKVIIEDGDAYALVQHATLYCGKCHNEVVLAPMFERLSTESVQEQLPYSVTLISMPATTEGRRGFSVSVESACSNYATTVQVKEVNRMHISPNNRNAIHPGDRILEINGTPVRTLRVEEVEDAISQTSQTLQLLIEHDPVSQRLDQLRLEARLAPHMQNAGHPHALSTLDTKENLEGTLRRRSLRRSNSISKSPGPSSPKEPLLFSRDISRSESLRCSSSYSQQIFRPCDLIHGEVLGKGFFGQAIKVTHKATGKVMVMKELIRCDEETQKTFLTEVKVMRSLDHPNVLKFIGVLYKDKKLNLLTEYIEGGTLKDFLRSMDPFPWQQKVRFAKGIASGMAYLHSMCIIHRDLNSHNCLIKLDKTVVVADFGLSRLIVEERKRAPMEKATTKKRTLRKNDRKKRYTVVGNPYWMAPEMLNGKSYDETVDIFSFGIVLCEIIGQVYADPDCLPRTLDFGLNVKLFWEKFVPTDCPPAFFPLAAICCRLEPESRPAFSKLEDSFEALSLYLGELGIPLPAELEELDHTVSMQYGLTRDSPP

% Residual activity with Skepinone-L [1]: 104% | % Residual activity with Skepinone-L [2]: 97% | % Residual activity with Skepinone-L [3]: 96% | % Residual activity with Skepinone-L [4]: 97% | inhibition [5]: 19.5% | % Residual activity with Skepinone-L [6]: 91% | inhibition [7]: -3.22% | % Residual activity with Skepinone-L [9]: 102% | % Residual activity with Skepinone-L [10]: 90% | % Residual activity with Skepinone-L [11]: 107% | % Residual activity with Skepinone-L [12]: 86% | % Residual activity with Skepinone-L [13]: 89% | % Residual activity with Skepinone-L [14]: 77% | % Residual activity with Skepinone-L [15]: 100% | % Residual activity with Skepinone-L [16]: 88% | % Residual activity with Skepinone-L [17]: 56% | % Residual activity with Skepinone-L [18]: 107% | % Residual activity with Skepinone-L [19]: 97% | % Residual activity with Skepinone-L [20]: 102% | % Residual activity with Skepinone-L [21]: 77% | inhibition [22]: 30.4% | % Residual activity with Skepinone-L [23]: 95% | % Residual activity with Skepinone-L [24]: 97% | % Residual activity with Skepinone-L [25]: 83% | % Residual activity with Skepinone-L [26]: 97% | % Residual activity with Skepinone-L [27]: 86% | % Residual activity with Skepinone-L [28]: 113% | % Residual activity with Skepinone-L [29]: 0% | % Residual activity with Skepinone-L [30]: 111% | % Residual activity with Skepinone-L [31]: 96% | % Residual activity with Skepinone-L [32]: 93% | % Residual activity with Skepinone-L [33]: 93% | % Residual activity with Skepinone-L [34]: 91% | % Residual activity with Skepinone-L [35]: 97% | % Residual activity with Skepinone-L [36]: 74% | % Residual activity with Skepinone-L [37]: 124% | % Residual activity with Skepinone-L [38]: 95% | % Residual activity with Skepinone-L [39]: 89% | % Residual activity with Skepinone-L [40]: 88% | % Residual activity with Skepinone-L [41]: 100% | % Residual activity with Skepinone-L [42]: 85% | % Residual activity with Skepinone-L [43]: 106% | % Residual activity with Skepinone-L [44]: 105% | % Residual activity with Skepinone-L [45]: 120% | % Residual activity with Skepinone-L [46]: 111% | % Residual activity with Skepinone-L [47]: 115% | % Residual activity with Skepinone-L [48]: 145% | % Residual activity with Skepinone-L [49]: 100%
SMILES: O=C1c2ccc(Nc3ccc(F)cc3F)cc2CCc2ccc(OC[C@H](O)CO)cc21 [Skepinone-L]
% Residual activity with Skepinone-L [8]: 88%

Source: ChEMBL document CHEMBL4507316 (2021)
